Measured values taken from PubChem BioAssay AID1259407 (Chemical Carcinogenesis Research Information System (CCRIS), 2018).
Calls of active or inactive are those of the source. How the calls were made is not given here.

Tested on: CCRIS mutagenicity, Ames/micronucleus/aberration tests
Test: CCRIS mutagenicity studies
[1] = Test System: AMES SALMONELLA TYPHIMURIUM, Strain/Indicator: TA98, Metabolic Activation: NONE, Method: PREINCUBATION
[2] = Test System: AMES SALMONELLA TYPHIMURIUM, Strain/Indicator: TA100, Metabolic Activation: NONE, Method: PREINCUBATION

Q: Which results are given for `[O]=[Cr](=[O])([OH])[O][Cr](=[O])(=[O])[OH]`?
A: mutagenic call (Test System: AMES SALMONELLA TYPHIMURIUM, Strain/Indicator: TA92, Metabolic Activation: NONE, Method: STANDARD PLATE): active; positive; mutagenic call (Test System: AMES SALMONELLA TYPHIMURIUM, Strain/Indicator: TA97, Metabolic Activation: HAMSTER, LIVER, S-9, AROCLOR 1254 (30%), Method: PREINCUBATION): active; positive; mutagenic call (Test System: AMES SALMONELLA TYPHIMURIUM, Strain/Indicator: TA97, Metabolic Activation: NONE, Method: PREINCUBATION): active; positive; mutagenic call (Test System: AMES SALMONELLA TYPHIMURIUM, Strain/Indicator: TA97, Metabolic Activation: RAT, LIVER, S-9, AROCLOR 1254 (30%), Method: PREINCUBATION): active; positive; mutagenic call (Test System: AMES SALMONELLA TYPHIMURIUM, Strain/Indicator: TA97A, Metabolic Activation: NONE, Method: MICROSUSPENSION-PREINCUBATION): active; positive; mutagenic call (Test System: AMES SALMONELLA TYPHIMURIUM, Strain/Indicator: TA97A, Metabolic Activation: RAT, LIVER, S-9, AROCLOR 1254, Method: MICROSUSPENSION-PREINCUBATION): active; positive; mutagenic call (Test System: AMES SALMONELLA TYPHIMURIUM, Strain/Indicator: TA98, Metabolic Activation: HAMSTER, LIVER, S-9, AROCLOR 1254 (30%), Method: PREINCUBATION): active; positive; mutagenic call (Test System: AMES SALMONELLA TYPHIMURIUM, Strain/Indicator: TA98, Metabolic Activation: NONE, Method: MICROSUSPENSION-PREINCUBATION): active; positive; mutagenic call [1]: active; positive; mutagenic call (Test System: AMES SALMONELLA TYPHIMURIUM, Strain/Indicator: TA98, Metabolic Activation: NONE, Method: STANDARD PLATE): active; positive; mutagenic call (Test System: AMES SALMONELLA TYPHIMURIUM, Strain/Indicator: TA98, Metabolic Activation: RAT, LIVER, S-9, AROCLOR 1254 (30%), Method: PREINCUBATION): active; positive; mutagenic call (Test System: AMES SALMONELLA TYPHIMURIUM, Strain/Indicator: TA98, Metabolic Activation: RAT, LIVER, S-9, AROCLOR 1254, Method: MICROSUSPENSION-PREINCUBATION): active; positive; mutagenic call (Test System: AMES SALMONELLA TYPHIMURIUM, Strain/Indicator: TA98, Metabolic Activation: RAT, LIVER, S-9, Method: STANDARD PLATE): active; positive; mutagenic call (Test System: AMES SALMONELLA TYPHIMURIUM, Strain/Indicator: TA100, Metabolic Activation: HAMSTER, LIVER, S-9, AROCLOR 1254 (30%), Method: PREINCUBATION): active; positive; mutagenic call (Test System: AMES SALMONELLA TYPHIMURIUM, Strain/Indicator: TA100, Metabolic Activation: NONE, Method: MICROSUSPENSION-PREINCUBATION): active; positive; mutagenic call [2]: active; positive; mutagenic call (Test System: AMES SALMONELLA TYPHIMURIUM, Strain/Indicator: TA100, Metabolic Activation: RAT, LIVER, S-9, AROCLOR 1254 (30%), Method: PREINCUBATION): active; positive; mutagenic call (Test System: AMES SALMONELLA TYPHIMURIUM, Strain/Indicator: TA100, Metabolic Activation: RAT, LIVER, S-9, AROCLOR 1254, Method: MICROSUSPENSION-PREINCUBATION): active; positive; mutagenic call (Test System: AMES SALMONELLA TYPHIMURIUM, Strain/Indicator: TA100, Metabolic Activation: RAT, LIVER, S-9, AROCLOR 1254, Method: STANDARD PLATE): active; positive; mutagenic call (Test System: AMES SALMONELLA TYPHIMURIUM, Strain/Indicator: TA100, Metabolic Activation: RAT, LIVER, S-9, Method: STANDARD PLATE): active; positive; mutagenic call (Test System: AMES SALMONELLA TYPHIMURIUM, Strain/Indicator: TA102, Metabolic Activation: NONE, Method: FLUCTUATION TEST): active; positive; mutagenic call (Test System: AMES SALMONELLA TYPHIMURIUM, Strain/Indicator: TA102, Metabolic Activation: NONE, Method: MICROSUSPENSION-PREINCUBATION): active; positive; mutagenic call (Test System: AMES SALMONELLA TYPHIMURIUM, Strain/Indicator: TA102, Metabolic Activation: NONE, Method: STANDARD PLATE): active; positive; mutagenic call (Test System: AMES SALMONELLA TYPHIMURIUM, Strain/Indicator: TA102, Metabolic Activation: RAT, LIVER, S-9, AROCLOR 1254, Method: MICROSUSPENSION-PREINCUBATION): active; positive; mutagenic call (Test System: AMES SALMONELLA TYPHIMURIUM, Strain/Indicator: TA103, Metabolic Activation: NONE, Method: STANDARD PLATE): active; positive; mutagenic call (Test System: AMES SALMONELLA TYPHIMURIUM, Strain/Indicator: TA104, Metabolic Activation: NONE, Method: STANDARD PLATE): active; positive; mutagenic call (Test System: AMES SALMONELLA TYPHIMURIUM, Strain/Indicator: TA1535, Metabolic Activation: NONE, Method: STANDARD PLATE): inactive; negative; mutagenic call (Test System: AMES SALMONELLA TYPHIMURIUM, Strain/Indicator: TA1535, Metabolic Activation: RAT, LIVER, S-9, Method: STANDARD PLATE): inactive; negative; mutagenic call (Test System: AMES SALMONELLA TYPHIMURIUM, Strain/Indicator: TA1537, Metabolic Activation: NONE, Method: STANDARD PLATE): inactive; negative; mutagenic call (Test System: AMES SALMONELLA TYPHIMURIUM, Strain/Indicator: TA1537, Metabolic Activation: RAT, LIVER, S-9, Method: STANDARD PLATE): inactive; negative; mutagenic call (Test System: AMES SALMONELLA TYPHIMURIUM, Strain/Indicator: TA1538, Metabolic Activation: NONE, Method: STANDARD PLATE): inactive; negative; mutagenic call (Test System: AMES SALMONELLA TYPHIMURIUM, Strain/Indicator: TA1538, Metabolic Activation: RAT, LIVER, S-9, Method: STANDARD PLATE): inactive; negative; mutagenic call (Test System: AMES SALMONELLA TYPHIMURIUM, Strain/Indicator: TA2638, Metabolic Activation: NONE, Method: PREINCUBATION): active; positive; mutagenic call (Test System: AMES SALMONELLA TYPHIMURIUM, Strain/Indicator: TA2638, Metabolic Activation: NONE, Method: STANDARD PLATE): active; positive; mutagenic call (Test System: AMES SALMONELLA TYPHIMURIUM, Strain/Indicator: TA2638A, Metabolic Activation: NONE, Method: STANDARD PLATE): active; positive; mutagenic call (Test System: E. COLI, Strain/Indicator: WP2 (PKM101), Metabolic Activation: NONE, Method: STANDARD PLATE): active; positive; mutagenic call (Test System: E. COLI, Strain/Indicator: WP2 UVRA (PKM101), Metabolic Activation: NONE, Method: STANDARD PLATE): active; positive; mutagenic call (Test System: E. COLI, Strain/Indicator: WP2 UVRA, Metabolic Activation: NONE, Method: SPOT TEST): active; positive; mutagenic call (Test System: E. COLI, Strain/Indicator: WP2 UVRA, Metabolic Activation: NONE, Method: STANDARD PLATE): active; positive; mutagenic call (Test System: UDS HUMAN AMNION FL CELL LINE, Strain/Indicator: THY INCORP, Metabolic Activation: NONE, Method: LIQUID SCINTILLATION COUNTING): active; positive

Q: For `COC(=O)C1=C(C)NC(COC(N)=O)=C(C(=O)OC(C)C)C1c1cccc(Cl)c1Cl` (stereo unspecified), which mutagenic call [1] is on record?
A: inactive; negative

Q: What about the mutagenic call (Test System: AMES SALMONELLA TYPHIMURIUM, Strain/Indicator: TA98, Metabolic Activation: RAT, LIVER, S-9, PHENOBARBITAL AND 5,6-BENZOFLAVONE, Method: PREINCUBATION) of the same compound?
A: inactive; negative

Q: And the mutagenic call [2]?
A: inactive; negative

Q: And the mutagenic call (Test System: AMES SALMONELLA TYPHIMURIUM, Strain/Indicator: TA100, Metabolic Activation: RAT, LIVER, S-9, PHENOBARBITAL AND 5,6-BENZOFLAVONE, Method: PREINCUBATION)?
A: inactive; negative

Q: And the mutagenic call (Test System: AMES SALMONELLA TYPHIMURIUM, Strain/Indicator: TA1535, Metabolic Activation: NONE, Method: PREINCUBATION)?
A: inactive; negative

Q: What about the mutagenic call (Test System: AMES SALMONELLA TYPHIMURIUM, Strain/Indicator: TA1535, Metabolic Activation: RAT, LIVER, S-9, PHENOBARBITAL AND 5,6-BENZOFLAVONE, Method: PREINCUBATION) of the same compound?
A: inactive; negative

Q: And the mutagenic call (Test System: AMES SALMONELLA TYPHIMURIUM, Strain/Indicator: TA1537, Metabolic Activation: NONE, Method: PREINCUBATION)?
A: inactive; negative

Q: What about the mutagenic call (Test System: AMES SALMONELLA TYPHIMURIUM, Strain/Indicator: TA1537, Metabolic Activation: RAT, LIVER, S-9, PHENOBARBITAL AND 5,6-BENZOFLAVONE, Method: PREINCUBATION) of the same compound?
A: inactive; negative

Q: And the mutagenic call (Test System: E. COLI, Strain/Indicator: WP2 UVRA, Metabolic Activation: NONE, Method: PREINCUBATION)?
A: inactive; negative

Q: And the mutagenic call (Test System: E. COLI, Strain/Indicator: WP2 UVRA, Metabolic Activation: RAT, LIVER, S-9, PHENOBARBITAL AND 5,6-BENZOFLAVONE, Method: PREINCUBATION)?
A: inactive; negative

Q: With `O=C(O)c1ccc(Cl)c([N+](=O)[O-])c1` as the compound, how does the mutagenic call [1] read?
A: active; positive

Q: What about the mutagenic call (Test System: AMES SALMONELLA TYPHIMURIUM, Strain/Indicator: TA98, Metabolic Activation: RAT, LIVER, S-9, KANECHLOR 500, Method: PREINCUBATION) of the same compound?
A: inactive; negative

Q: What about the mutagenic call [2] of the same compound?
A: active; positive

Q: And the mutagenic call (Test System: AMES SALMONELLA TYPHIMURIUM, Strain/Indicator: TA100, Metabolic Activation: RAT, LIVER, S-9, KANECHLOR 500, Method: PREINCUBATION)?
A: active; positive

Q: With `Nc1ccccc1O` as the compound, how does the mutagenic call (Test System: AMES SALMONELLA TYPHIMURIUM, Strain/Indicator: TA98, Metabolic Activation: NONE) read?
A: inactive; negative

Q: What about the mutagenic call (Test System: AMES SALMONELLA TYPHIMURIUM, Strain/Indicator: TA98, Metabolic Activation: S-9) of the same compound?
A: inactive; negative
